In patent US20030083483A1, “Molecular interaction sites of vimentin RNA and methods of modulating the same” (priority 1999, published 2003):
Converted amounts (≈) assume the structure as drawn.

How the values were obtained:
E. coli = assay: high throughput screening assay for antibacterial activity; format: cell-based; conditions: Escherichia coli; against E. coli; crude compounds, identical activity with analytically pure material; read-out: minimum inhibitory concentrations (MIC's)
From the text: This activity was verified by manual solution synthesis of analytically pure material as described in Example 6 above, which had identical activity.

[1] = target: 27-mer model RNA sequence of the 16S A-site; assay: MASS mass spectrometry binding assay with 16S A-site 27-mer RNA; parameters: species or system prokaryotic; conditions: for complexes detected with the 16S A site 27mer RNA: ESI-FTICR, mixture of five aminoglycosides, 16S and 18S targets simultaneously
Protocol: The compounds are screened for binding affinity using MASS or conventional high-throughput functional screens. The best scoring compounds from docking a 256-member library against the 16S A-site ribosomal RNA structure are shown in the table 5 below. The MASS assay was performed with the 27-mer model RNA sequence of the 16S A-site whose NMR structure has been determined. The transcription/translation assay was based on expression of a luciferase plasmid.
A preferred first step of MASS screening involves mixing the RNA target (or targets) with a combinatorial library of ligands designed to bind to a specific site on the target molecule(s). Specific noncovalent complexes formed in solution between the target(s) and any library members are transferred into the gas phase and ionized by ESI. As described herein, from the measured mass difference between the complex and the free target, the identity of the binding ligand can be determined. The dissociation constant of the complex can be determined in two ways: if a ligand with a known binding affinity for the target is available, a relative Kd can be measured by using the known ligand as an internal control and measuring the abundance of the unknown complex to the abundance of the control, alternatively, if no internal control is available, Kd's can be determined by making a series of measurements at different ligand concentrations and deriving a Kd value from the “titration” curve.
In a direct determination of solution phase dissociation constants (Kd's) by mass spectrometry, ESI-MS measurements of a solution containing a fixed concentration of RNA at different concentrations of ligand were obtained. By measuring the ratio of bound:unbound RNA at varying ligand concentrations, the Kd was determined by 1/slope of the “titration curve”. The MS derived value of 110 nM is in good agreement with previously reported literature value of 200 nM.
All mass spectrometry experiments were performed using an Apex II 70e electrospray ionization Fourier transform ion cyclotron resonance mass spectrometer (Bruker Daltonics, Billerica) employing an actively shielded 7 tesla superconducting magnet. RNA solutions were prepared in 50 mM NH4OAc (pH 7), mixed 1:1 v:v with isopropanol to aid desolvation, and infused at a rate of […] using a syringe pump. Ions were formed in a modified electrospray source (Analytica, Branford) employing an off axis, grounded electrospray probe positioned ca. 1.5 cm from the metalized terminus of the glass desolvation capillary biased at 5000 V. A counter-current flow of dry […] gas heated to 225C was employed to assist in the desolvation process. Ions were accumulated in an external ion reservoir comprised of an RF-only hexapole, a skimmer cone, and an auxiliary electrode for 1000 ms prior to transfer into the trapped ion cell for mass analysis. Each spectrum was the result of the coaddition of 16 transients comprised of […] acquired over a 90,909 kHz bandwidth resulting in a 700 ms detection interval. All aspects of pulse sequence control, data acquisition, and post acquisition processing were performed using a Bruker Daltonics datastation running XMASS version 4.0 on a Silicon Graphics (San Jose, Calif.) R5000 computer.
Mass spectrometry experiments were performed in order to detect complex formation between a library containing five aminoglycosides (Sisomicin (Sis), Tobramycin (Tob), Bekanomycin (Bek), Paromomycin (PM), and Livodomycin (LV)) and two RNA targets simultaneously. Signals from the (M-5H+)^5− charge states of free 16S and 18S RNAs are detected at m/z 1801.515 and 1868.338, respectively. The mass spectrometric assay reproduces the known solution binding properties of aminoglycosides to the 16S A site model and an 18S A site model with a neutral mass linker. Consistent with the higher binding affinity of theses aminoglycosides for the 16S A-site relative to the 18S A-site, aminoglycoside complexes are observed only with the 16S rRNA target. […]

18S A site model = assay: ESI-FTICR mass spectrometric complex detection with 18S A-site model RNA; format: binding, eukaryotic; conditions: mixture of five aminoglycosides, 16S and 18S targets simultaneously
Protocol: Paromomycin, lividomycin (MW=761.354 Da), sisomicin (MW=447.269 Da), tobramycin (MW=467.2591 Da), and bekanamycin (MW=483.254 Da) were obtained from Sigma (St. Louis, Mo.) and ICN (Costa Mesa, Calif.) and were dissolved to generate 10 mM stock solutions. 2′ methoxy analogs of RNA constructs representing the prokaryotic (16S) rRNA and eukaryotic (18S) rRNA A-site were synthesized in house and precipitated twice from 1 M ammonium acetate following deprotection with ammonia (pH 8.5). The mass-tagged constructs contained an 18-atom mass tag (C12H2509) attached to the 5′-terminus of the RNA oligomer through a phosphodiester linkage.
All mass spectrometry experiments were performed using an Apex II 70e electrospray ionization Fourier transform ion cyclotron resonance mass spectrometer (Bruker Daltonics, Billerica) employing an actively shielded 7 tesla superconducting magnet. […]
Mass spectrometry experiments were performed in order to detect complex formation between a library containing five aminoglycosides (Sisomicin (Sis), Tobramycin (Tob), Bekanomycin (Bek), Paromomycin (PM), and Livodomycin (LV)) and two RNA targets simultaneously. Signals from the (M-5H+)^5− charge states of free 16S and 18S RNAs are detected at m/z 1801.515 and 1868.338, respectively. […]

[2] = general statement; cited from earlier work
[3] = general statement; cited from earlier work; remark: listed apart in the source
[4] = system: TAR RNA interaction with tat peptide; assay: disruption of TAR RNA interaction with tat peptide; format: binding, HIV-1
[5] = target: luciferase mRNA containing the TAR RNA structure in the 5′-UTR; assay: wheat germ lysate translation of luciferase mRNA with TAR in the 5′-UTR; format: biochemical, HIV; conditions: read-out: concentration reducing translation by 50%
From the text: It is believed that stabilization of mRNA structures near the 5′-cap also could be effected by specific “small” molecules, and that such binding would reduce the translational efficiency of the mRNA. To test this hypothesis, a plasmid was constructed containing the luciferase message behind a 5′-UTR containing a 27-mer RNA construct of the HIV TAR stem-loop bulge whose structure had been determined by NMR. The resulting mRNA could be expressed and capped in a wheat germ lysate translation system supplemented with T7 polymerase following addition of m^7G to the lysate. Insertion of a 9-base leader before the TAR structure (HIVluc+9) enhanced the translational efficiency, presumably by allowing the pre-initiation complex to form. The helicase activity associated with the pre-initiation complex can transiently melt out the TAR RNA structure, and the message is translated.

luciferase mRNA = assay: wheat germ lysate translation of luciferase mRNA; format: biochemical; conditions: mRNA without TAR structure
From the text: It is believed that stabilization of mRNA structures near the 5′-cap also could be effected by specific “small” molecules, and that such binding would reduce the translational efficiency of the mRNA. To test this hypothesis, a plasmid was constructed containing the luciferase message behind a 5′-UTR containing a 27-mer RNA construct of the HIV TAR stem-loop bulge whose structure had been determined by NMR.

O=C(NO)[C@@H](Cc1ccc2ccccc2c1)NS(=O)(=O)c1ccc(Br)cc1 [Compound 5-n-vi, (2R)-2-(((4-bromophenyl)Sulfonyl)Amino)-3-(2-naphthyl)Propanehydroxamic Acid]
MIC (E. coli): 3 to 6 µM (≈ 1.35 to 2.7 µg/mL)

NC[C@@H]1O[C@H](O[C@H]2[C@@H](O)[C@H](O[C@@H]3[C@@H](O)[C@H](N)C[C@H](N)[C@H]3O[C@H]3O[C@H](CO)[C@@H](O)C[C@H]3N)O[C@@H]2CO)[C@H](N)[C@@H](O)[C@@H]1O[C@H]1O[C@H](CO)[C@@H](O)[C@H](O)[C@@H]1O [lividomycin]
Kd ([1]; 16S A site 27mer, ESI-MS titration, read-out: KD measured by mass spectrometry): 28 nM | complexes detected with the 16S A site 27mer RNA [1]: High affinity complexes | complexes with the 18S A site model (18S A site model): absence

O=C(NO)[C@@H](Cc1ccc2ccccc2c1)NS(=O)(=O)c1ccc2ccccc2c1 [Compound 5-n-ii, (2R)-3-(2-naphthyl)-2-((2-naphthylsulfonyl)Amino)Propanehydroxamic Acid]
MIC (E. coli): 0.7 to 1.5 µM (≈ 0.294 to 0.631 µg/mL)

C=C(NC(=O)C(=C)NC(=O)c1csc(C2=N[C@@H]3c4csc(n4)[C@H]4NC(=O)c5csc(n5)[C@H]([C@](C)(O)[C@@H](C)O)NC(=O)[C@H]5CSC(=N5)/C(=C/C)NC(=O)[C@H]([C@@H](C)O)NC(=O)c5csc(n5)[C@]3(CC2)NC(=O)[C@H](C)NC(=O)C(=C)NC(=O)[C@H](C)NC(=O)[C@H]([C@@H](C)CC)N[C@@H]2C=Cc3c([C@H](C)O)cc(nc3[C@H]2O)C(=O)O[C@@H]4C)n1)C(N)=O [thiostrepton]
solubility [2]: very poor | toxicity [3]: relatively high

NC[C@H]1O[C@H](O[C@H]2[C@H](O)[C@@H](O[C@H]3O[C@H](CO)[C@@H](O)[C@H](N)[C@H]3O)[C@H](N)C[C@@H]2N)[C@H](N)C[C@@H]1O [tobramycin]
complexes detected with the 16S A site 27mer RNA [1]: Weaker complexes

CN[C@@H]1[C@@H](O)[C@@H](O[C@@H]2[C@@H](O)[C@H](O[C@H]3OC(CN)=CC[C@H]3N)[C@@H](N)C[C@H]2N)OC[C@]1(C)O [sisomycin, sisomicin]
complexes detected with the 16S A site 27mer RNA [1]: Weaker complexes

NC[C@H]1O[C@H](O[C@H]2[C@H](O)[C@@H](O[C@H]3O[C@H](CO)[C@@H](O)[C@H](N)[C@H]3O)[C@H](N)C[C@@H]2N)[C@H](N)[C@@H](O)[C@@H]1O [bekamycin, bekanamycin]
complexes detected with the 16S A site 27mer RNA [1]: Weaker complexes

CNc1ccc(NCCO)c2c1C(=O)c1ccccc1C2=O [ACD 00001199]
concentration at which binding to TAR RNA disrupts the interaction with tat peptide [4]: 1 µM | IC50 values ([4]; in words, assay not stated, TAR ligands): low | IC50 [5]: 50 µM | inhibition of translation of the luciferase mRNA (luciferase mRNA): some inhibition of translation at very high concentrations
